From BindingDB's records for doi:10.1016/j.bmc.2018.03.025 (Xi'An Jiaotong University, 2018)

Assay: Inhibition of EGFR L858R mutant (unknown origin) using poly (Glu, Tyr) as substrate after 40 mins by kinase-glo plus luminescence assay

Structure (SMILES) | IC50
CN(C)CCOc1ccc(Nc2ncc3nc(Sc4cccc(F)c4)n(C4CCOCC4)c3n2)cc1 | 5.8 nM
CN(C)CCOc1ccc(Nc2ncc3nc([S+]([O-])c4ccccc4)n(C4CCOCC4)c3n2)cc1 (centres undefined) | 2.6 nM
CN1CCN(c2ccc(Nc3ncc4nc([S+]([O-])c5ccccc5)n(C5CCCC5)c4n3)cc2)CC1 (centres undefined) | 4.2 nM
CN1CCN(c2ccc(Nc3ncc4nc(Sc5ccccc5)n(C5CCCC5)c4n3)cc2)CC1 | 4.2 nM

Compounds with a lower IC50, results first:

IC50 | Structure (SMILES)
2.4 nM | CN1CCN(c2ccc(Nc3ncc4nc(Sc5ccccc5)n([C@H]5CC[C@H](O)CC5)c4n3)cc2)CC1
2 nM | CN1CCN(c2ccc(Nc3ncc4nc(Sc5ccccc5)n(C5CCOCC5)c4n3)cc2)CC1
1.9 nM | CN(C)C1CCN(c2ccc(Nc3ncc4nc(Sc5ccccc5)n(C5CCOCC5)c4n3)cc2)CC1
1.7 nM | CN(C)CCOc1ccc(Nc2ncc3nc(Sc4ccccc4)n(C4CCOCC4)c3n2)cc1
1.2 nM | CN(C)CCOc1ccc(Nc2ncc3nc(Sc4ccc(F)cc4)n(C4CCOCC4)c3n2)cc1
